Results taken from patent US6448269B1 (Eli Lilly and Company, priority 1993, dated 2002).
Structures can show the parent of a compound that is named as a salt. Where two headings read alike, the source gives them in different places.

Assays:
[1] = test system: human platelet-rich plasma; assay: Platelet aggregation assay (Aggregation-Human PRP/ADP); format: cell-based; details: human platelet-rich plasma incubated with compound 1 minute at 37° C., ADP-induced aggregation, read-out: Agg: Human PRP/ADP IC50uM
Method in brief: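 Citrated human PRP (~200-400,000 platelets/μl) from healthy volunteers, stirred, incubated with compound 1 min at 37° C. Aggregation was then triggered, most often by ADP 5 μM, or by 1 μg/ml collagen, 1 μM U46619 or 0.3 μM platelet activating factor, and read in an aggregometer with platelet-poor plasma as reference.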

GPIIb-IIIa = target: T1, GPIIb-IIIa (Homo sapiens, UniProt P05106+P08514); assay: ELISA IIb-IIIa assay (fibrinogen binding to immobilized GPIIb-IIIa); details: purified platelet GPIIb-IIIa receptor coated on ELISA plates; biotin-labeled fibrinogen 10 nM, 3 hours at 25° C.
T1 construct: Purified platelet GPIIb-IIIa receptor was prepared as described by Fitzgerald; from tissue; host or cells: platelets
T1 sequence (P08514 32-887 limits assumed): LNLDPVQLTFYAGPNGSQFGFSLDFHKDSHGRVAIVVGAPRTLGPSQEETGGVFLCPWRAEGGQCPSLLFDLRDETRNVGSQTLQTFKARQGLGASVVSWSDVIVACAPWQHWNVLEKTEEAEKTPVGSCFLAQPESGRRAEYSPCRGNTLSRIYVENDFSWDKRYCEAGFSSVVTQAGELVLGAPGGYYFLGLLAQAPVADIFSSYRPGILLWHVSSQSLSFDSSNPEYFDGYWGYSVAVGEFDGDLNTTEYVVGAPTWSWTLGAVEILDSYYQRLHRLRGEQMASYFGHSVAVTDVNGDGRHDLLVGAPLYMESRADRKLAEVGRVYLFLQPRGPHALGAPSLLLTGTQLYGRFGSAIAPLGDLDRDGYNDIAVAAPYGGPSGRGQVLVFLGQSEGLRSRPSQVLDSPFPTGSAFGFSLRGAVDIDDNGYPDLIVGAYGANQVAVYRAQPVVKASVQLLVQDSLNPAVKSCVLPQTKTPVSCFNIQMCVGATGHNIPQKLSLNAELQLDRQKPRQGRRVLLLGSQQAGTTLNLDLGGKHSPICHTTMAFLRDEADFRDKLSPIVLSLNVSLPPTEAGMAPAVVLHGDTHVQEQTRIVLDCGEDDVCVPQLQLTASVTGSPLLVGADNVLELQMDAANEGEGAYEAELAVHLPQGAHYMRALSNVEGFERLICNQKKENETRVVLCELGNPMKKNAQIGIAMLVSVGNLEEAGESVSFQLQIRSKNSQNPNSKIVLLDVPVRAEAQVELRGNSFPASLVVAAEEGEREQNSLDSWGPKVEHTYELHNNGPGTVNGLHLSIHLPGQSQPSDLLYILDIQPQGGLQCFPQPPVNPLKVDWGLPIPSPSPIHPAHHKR
T1 sequence (P05106 27-788): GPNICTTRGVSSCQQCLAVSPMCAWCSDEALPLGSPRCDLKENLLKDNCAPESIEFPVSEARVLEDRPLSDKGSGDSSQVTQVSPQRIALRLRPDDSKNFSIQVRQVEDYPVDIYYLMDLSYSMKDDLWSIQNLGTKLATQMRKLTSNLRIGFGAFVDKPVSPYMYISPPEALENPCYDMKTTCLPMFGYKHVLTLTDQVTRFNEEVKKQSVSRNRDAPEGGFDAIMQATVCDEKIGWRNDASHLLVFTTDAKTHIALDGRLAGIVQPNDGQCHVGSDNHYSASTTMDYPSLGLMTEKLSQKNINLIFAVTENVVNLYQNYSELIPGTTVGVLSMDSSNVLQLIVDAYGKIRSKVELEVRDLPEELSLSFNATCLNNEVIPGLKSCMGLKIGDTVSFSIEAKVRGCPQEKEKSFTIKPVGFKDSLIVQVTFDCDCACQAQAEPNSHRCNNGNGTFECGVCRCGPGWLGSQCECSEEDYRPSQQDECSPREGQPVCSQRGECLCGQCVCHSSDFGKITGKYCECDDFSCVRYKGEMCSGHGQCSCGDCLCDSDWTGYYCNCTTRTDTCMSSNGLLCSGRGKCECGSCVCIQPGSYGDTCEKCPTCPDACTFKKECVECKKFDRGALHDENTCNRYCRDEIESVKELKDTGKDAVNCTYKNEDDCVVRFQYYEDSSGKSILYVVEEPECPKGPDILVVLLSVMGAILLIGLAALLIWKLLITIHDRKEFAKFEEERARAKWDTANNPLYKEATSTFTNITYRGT
Method in brief: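 Purified platelet GPIIb-IIIa was coated overnight at 4° C in Tris/NaCl/CaCl2 pH 7.4 and BSA-blocked. Biotinylated fibrinogen (10 nM final) was incubated with test compounds for 3 h at 25° C in Ca2+-containing binding buffer. Bound ligand was detected by anti-biotin–alkaline phosphatase with pNPP, OD 405.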

Molecule	IC50 ([1]; 1 min) [µM]	IC50 (GPIIb-IIIa) [nM]	melting point	IC50 [1] [µM]
O=C(O)CC1CCc2cc(NC(=O)/C=C/C3CCNCC3)ccc2O1 (racemic) [Example 78, rac-(3,4-Dihydro-6-(N-(3-(piperidine-4-yl)propenoyl)amino)-2H-1-benzopyran-2-yl)acetic Acid]	0.18	20	–	–
CCCNC(=N)c1ccc(C(=O)Nc2ccc3c(c2)CCC(CC(=O)O)O3)cc1 (racemic) [Example 82, rac-(3,4-Dihydro-6-(N-(4-((propylamino)iminomethyl)benzoyl)amino)-2H-1-benzopyran-2-yl)acetic Acid]	0.12	19	–	–
CCCCNC(=N)c1ccc(C(=O)Nc2ccc3c(c2)CCC(CC(=O)O)O3)cc1 (racemic) [Example 84, rac-(6-(N-(4-((Butylamino)iminomethyl)benzoyl)amino)-3,4-dihydro-2H-1-benzopyran-2-yl)acetic Acid]	0.084	5.5	–	–
CCOC(=O)CC1CCc2cc(NC(=O)c3ccc(C(=N)NC(=O)OC)cc3F)ccc2O1 (racemic) [Example 88, Ethyl rac-(3,4-Dihydro-6-(N-(2-fluoro-4-((methoxycarbonylamino)iminomethyl)benzoyl)amino)-2H-1-benzopyran-2-yl)acetate]	0.084	99	–	–
N=C(NCc1ccccc1)c1ccc(C(=O)Nc2ccc3c(c2)CCC(CC(=O)O)O3)cc1 (racemic) [Example 93, rac-(3,4-Dihydro-6-(N-(4-(N′-(phenylmethylamino)iminomethyl)benzoyl)amino)-2H-1-benzopyran-2-yl)acetic Acid]	0.086	9.4	–	–
N=C(N)c1ccc(COc2ccc3c(c2)CCN(CC(=O)O)C3=O)cc1 [Example 1, 6-[[4-(Aminoiminomethyl)phenyl]methoxy]-3,4-dihydro-1-oxo-2(1H)-isoquinoline Acetic Acid Trifluoroacetate]	20	600	–	–
N=C(N)c1ccc(C#Cc2ccc3c(c2)CCN(CC(=O)O)C3=O)cc1 [Example 2, 6-[[4-(Aminoiminomethyl)phenyl]ethynyl]-3,4-dihydro-1-oxo-2(1H)-isoquinoline Acetic Acid Trifluoroacetate]	0.52	30	–	–
N=C(N)c1ccc(CCc2ccc3c(c2)CCN(CC(=O)O)C3=O)cc1 [Example 3, 6-[2-[4-(Aminoiminomethyl)phenyl]ethyl]-3,4-dihydro-1-oxo-2(1H)-isoquinoline Acetic Acid Trifluoroacetate]	1	110	–	–
N=C(N)c1ccc(C(=O)Nc2ccc3c(c2)CCN(CC(=O)O)C3=O)cc1 [Example 4, 6-[[(4-(Aminoiminomethyl)benzoy]amino]-3,4-dihydro-1-oxo-2(1H)-isoquinoline Acetic Acid Trifluoroacetate]	0.1	3.3	–	–
N=C(N)c1cccc(C#Cc2ccc3c(c2)CCN(CC(=O)O)C3=O)c1 [Example 17, 6-[[3-(Aminoiminomethyl)phenyl]ethynyl]-3,4-dihydro-1-oxo-2(1H)-isoquinoline Acetic Acid Trifluoroacetate]	> 100	45000	–	–
N=C(N)c1cccc(CCc2ccc3c(c2)CCN(CC(=O)O)C3=O)c1 [Example 18, 6-[2-[3-(Aminoiminomethyl)phenyl]ethyl]-3,4-dihydro-1-oxo-2(1H)-isoquinoline Acetic Acid Trifluoroacetate]	> 100	11000	–	–
N=C(N)c1ccc(CNC(=O)c2ccc3c(c2)CCN(CC(=O)O)C3=O)cc1 [Example 19, 6-[[(4-Aminoiminomethyl)phenyl]methylaminocarbonyl]-3,4-dihydro-1-oxo-2(1H)isoquinoline Acetic Acid Trifluoroacetate]	> 100	13000	–	–
CCOCCCC(CC(=O)O)N1CCc2cc(OCCCC3CCNCC3)ccc2C1=O (stereo not drawn) [Example 22, 6-[4-(Piperidn-4-yl)propyloxy]-3,4-dihydro-1-oxo-B-(3-ethoxypropyl)-1-oxo-2(1H)-isoquinoline Propanoic Acid Trifluoroacetate]	2	200	–	–
N=C(N)c1ccc(COc2ccc3c(c2)CCC(OCC(=O)O)C3)cc1 (stereo not drawn) [Example 23]	25	190	–	–
O=C(O)COC1CCc2cc(OCCCC3CCNCC3)ccc2C1 (stereo not drawn) [Example 24]	6.5	760	–	–
N=C(N)c1ccc(C(=O)Nc2ccc3c(c2)CCC(CC(=O)O)C3)cc1 (stereo not drawn) [Example 28]	0.19	5	–	–
N=C(N)c1ccc(C(=O)Nc2ccc3c(c2)CCC(OCC(=O)O)C3)cc1 (stereo not drawn) [Example 29]	0.28	15	–	–
N=C(N)c1ccc(C(=O)Nc2ccc3c(c2)CCC(CC(=O)O)=C3)cc1 [Example 31]	15	16	–	–
N=C(N)c1ccc(C(=O)Nc2ccc3c(c2)CCC(CC(=O)O)C3=O)c(F)c1 (stereo not drawn) [Example 32]	0.1	4	–	–
O=C(O)CN1CCc2cc(OCCCC3CCNCC3)ccc2C1 [Example 34]	2.3	220	–	–
N=C(N)c1ccc(COc2ccc3c(c2)CCN(CC(=O)O)C3)cc1 [Example 35]	0.33	30	–	–
N=C(N)c1ccc(C(=O)Nc2ccc3c(c2)CCN(CC(=O)O)C3)cc1 [Example 36]	0.17	5	–	–
N=C(N)c1ccc(C(=O)Nc2ccc3c(c2)CCC(/C=C/C(=O)O)C3)cc1 (stereo not drawn) [Example 37]	4.4	100	–	–
N=C(N)c1ccc(C(=O)Nc2ccc3c(c2)CCC(CCC(=O)O)C3)cc1 (stereo not drawn) [Example 38]	2.8	240	–	–
N=C(N)c1ccc(NC(=O)c2ccc3c(c2)CCC(OCC(=O)O)C3)cc1 (stereo not drawn) [Example 39]	0.36	31	–	–
N=C(N)c1ccc(NC(=O)c2ccc3c(c2)CCC(CC(=O)O)C3)cc1 (stereo not drawn) [Example 40]	1.6	53	–	–
N=C(N)c1ccc(C(=O)Nc2ccc3c(c2)OCC(OCC(=O)O)C3)cc1 (stereo not drawn) [Example 41]	0.3	46	–	–
N=C(N)c1ccc(C(=O)Nc2ccc3c(c2)CCC(CC(=O)O)C3=O)s1 (stereo not drawn) [Example 106]	–	–	205 to 208 °C (dec.)	–
(+−)-6-[[4-(Aminoiminomethyl)phenyl]methoxy]-3,4-dihydro-1-oxo-beta-(1,4-dioxyhexyl)-2(1H)-isoquinoline Propionoic Acid Trifluoroacetate [Example 13]	–	100	–	0.68
